Data from ChEMBL document CHEMBL5620419, “Discovery of new Lenalidomide derivatives as potent and selective GSPT1 degraders” (Eur J Med Chem, 2023).

Biological target: Protein cereblon/Eukaryotic peptide chain release factor GTP-binding subunit ERF3A (Homo sapiens, UniProt P15170+Q96SW2)
Experiment: PROTAC activity at CRBN/GSPT1 in human U-937 cells assessed as degradation of GSPT1 measured after 6 hrs by Western blot analysis
Type: cell-based

Protein cereblon/Eukaryotic peptide chain release factor GTP-binding subunit ERF3A, sequence (Q96SW2 whole entry): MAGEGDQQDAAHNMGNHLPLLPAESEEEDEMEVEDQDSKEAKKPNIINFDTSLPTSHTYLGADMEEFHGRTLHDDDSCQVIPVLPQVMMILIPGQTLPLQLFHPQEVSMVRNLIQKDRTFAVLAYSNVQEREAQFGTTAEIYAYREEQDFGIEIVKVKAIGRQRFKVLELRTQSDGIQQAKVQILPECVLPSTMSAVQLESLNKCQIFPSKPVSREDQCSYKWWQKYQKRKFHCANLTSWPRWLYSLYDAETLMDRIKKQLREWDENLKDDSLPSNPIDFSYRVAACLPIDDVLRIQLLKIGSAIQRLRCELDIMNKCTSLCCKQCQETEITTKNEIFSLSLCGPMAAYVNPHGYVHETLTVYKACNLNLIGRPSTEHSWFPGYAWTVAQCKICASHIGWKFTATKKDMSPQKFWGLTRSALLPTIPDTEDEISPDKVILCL
Protein cereblon/Eukaryotic peptide chain release factor GTP-binding subunit ERF3A, sequence (P15170 whole entry): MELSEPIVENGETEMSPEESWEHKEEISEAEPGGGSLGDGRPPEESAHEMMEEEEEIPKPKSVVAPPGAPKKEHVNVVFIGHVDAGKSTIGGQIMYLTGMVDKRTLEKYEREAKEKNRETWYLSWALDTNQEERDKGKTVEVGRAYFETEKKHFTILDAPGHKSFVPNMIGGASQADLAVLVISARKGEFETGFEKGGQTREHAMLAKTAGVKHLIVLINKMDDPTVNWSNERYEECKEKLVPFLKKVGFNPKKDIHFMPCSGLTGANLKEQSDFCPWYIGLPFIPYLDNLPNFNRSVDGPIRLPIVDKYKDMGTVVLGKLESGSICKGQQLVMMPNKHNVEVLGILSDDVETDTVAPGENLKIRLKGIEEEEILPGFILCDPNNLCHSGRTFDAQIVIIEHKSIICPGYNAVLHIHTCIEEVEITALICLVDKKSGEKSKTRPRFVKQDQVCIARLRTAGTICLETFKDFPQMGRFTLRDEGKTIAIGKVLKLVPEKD

Cc1ccc(NC(=O)CCc2ccc3c(c2)C(=O)N(C2CCC(=O)NC2=O)C3)cc1Cl (stereo unspecified) was tested, and the EC50 was 18 nM.
